The text below walks through data of patent US6130215A, “Piperazinylalkylthiopyrimidine derivatives, pharmaceutical compositions containing the same and a process for the preparation of the novel compounds” (Egis Gyoyszergyar RT, priority 1995, dated 2000).

In assay [1] the test system is rat stomach fundus smooth muscle. The assay can be described thus: Inhibition of serotonin-induced contractions of isolated rat stomach fundus smooth muscle. It is filed as cell-based, rat (male Wistar). The settings on record: 5-HT 10^-7 M, 37° C., read-out: Inhibition of 5-HT-evoked contractions of isolated rat stomach fundus, IC50. The procedure: The experiments were performed on male Wistar rats weighing 350 to 400 g. The animals were fasted for 24 hours before the experiments, however, they were allowed to drink tap water ad libitum. The method used was a modified version of Vane et al. /J. Pharmac. Chemother., 12, 344 (1957)/. The rats were killed by decapitation and their stomach was removed, and 3 mm wide and 20 to 30 mm long strips were cut in parallel with the greatest curvature of the stomach. The strips were incubated for 60 minutes in a 6 ml Lucite chamber filled with Tyrode solution (NaCl 136.9 mM, KCl2.7 mM, CaCl2 1.8 mM, MgCl2 1.0 mM, NaHCO3 11.9 mM, glucose 5.6 mM, NaH2 PO4 0.4 mM) warmed to 37° C. and bubbled with a gas consisting of 95% of oxygen and 5% of carbon dioxide. The strips were stretched with 0.5 g during the 60 minutes equilibration time and were washed every 20 minutes. The tension was measured isometrically by a strain gauge (Hugo Sachs) and was recorded on a Graphtech Mark VII 3101 polygraph.
Three control contractions were evoked by 5-HT added to the bath in 10^-7 M concentration (C1, C2, C3).
The effects of the test compounds were determined in 5 increasing concentrations (T2, T3, T4, T5, and T6). After determining the effect of two concentrations of the test compounds, the control 5-HT response was checked after each test measurement.
(§1) IC50 was calculated by nonlinear curve fitting of the inhibitory effect of increasing concentrations of the test compound.

Assay [2] deals with T1, 5-HT2C receptor (Sus scrofa, UniProt K7GSR7).
T1 construct: pig brain choroid plexus membrane preparation; from tissue; host or cells: pig brain choroid plexus membrane preparation
T1 sequence (K7GSR7 1-457): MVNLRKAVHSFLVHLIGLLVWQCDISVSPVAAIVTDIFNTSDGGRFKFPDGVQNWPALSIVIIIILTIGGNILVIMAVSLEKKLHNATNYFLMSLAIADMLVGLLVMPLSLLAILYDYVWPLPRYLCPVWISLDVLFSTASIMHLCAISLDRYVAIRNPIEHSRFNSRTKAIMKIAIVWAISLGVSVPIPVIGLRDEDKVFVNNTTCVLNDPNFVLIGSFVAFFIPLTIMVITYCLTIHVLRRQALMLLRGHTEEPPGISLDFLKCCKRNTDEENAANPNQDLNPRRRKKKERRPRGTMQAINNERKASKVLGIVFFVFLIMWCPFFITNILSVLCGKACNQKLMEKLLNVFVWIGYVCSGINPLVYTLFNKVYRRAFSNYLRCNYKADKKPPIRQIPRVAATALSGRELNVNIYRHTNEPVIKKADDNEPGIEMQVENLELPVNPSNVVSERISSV
The assay can be described thus: 5-HT2C receptor binding ([3H]mesulergine, pig brain choroid plexus membrane preparation). The settings on record: tritiated mesulergine, 37° C., read-out: Inhibition of receptor binding of the radioactive ligand, 5-HT2C (Ki). On the procedure:
(§2) 5-HT2A and 5-HT2C receptor binding was measured according to the methods described by Leysen et al. /Mol. Pharmacol., 21, 301 (1981)/ and Pazos et al. /Eur. J. Pharmacol., 106, 539 (1985)/, respectively. 5-HT2A receptor binding was measured in rat brain frontal cortex membrane preparation using tritiated ketanserine /3-/2-(4-fluorobenzoyl)- -1-piperidinyl/ethyl-2,4-(1H,3H)-quinazoline-dione/(60-90 Ci/mmole) as ligand. 5-HT2C receptor binding was measured in pig brain choroid plexus membrane preparation using tritiated mesulergine /N'-/(8)-1,6-dimethyl-ergoline-8-yl/-N,N-dimethylsulfamide (70-85 Ci/mmole) as the ligand. Non-specific binding to 5-HT2A and 5-HT2C receptors were determined in the presence of 10 micro M cyproheptadine/4-(5H-dibenzo/a,d/cycloheptene-5-ylidene)-1-methylpiperidine/ and 1 micro M mianserine/1,2,3,4,10,14b-hexahydro-2-methyldibenzo-/c,f/pyrazino/1,2-a/azepine/, respectively. The final incubation volumes were 250 and 1000 microlitres. Samples were incubated for 15 and 30 minutes at 37° C. Incubation was stopped by adding 9 ml of ice-cold 50 mM tris(hydroxymethyl)-aminomethane hydrochloride (pH=7.7) to the reaction mixture. The samples were rapidly filtered through Whatman GF/B glass fiber filters using reduced pressure. Before use, the filters were soaked in a 0.05% poly-ethyleneimine solution for 2 to 3 hours. Radioactivity of the filters was determined by a scintillation spectrometer.

The target in assay [3] is T2, 5-HT2A receptor (Rattus norvegicus, UniProt P14842).
T2 construct: rat brain frontal cortex membrane preparation; from tissue; host or cells: rat brain frontal cortex membrane preparation
T2 sequence (P14842 whole entry): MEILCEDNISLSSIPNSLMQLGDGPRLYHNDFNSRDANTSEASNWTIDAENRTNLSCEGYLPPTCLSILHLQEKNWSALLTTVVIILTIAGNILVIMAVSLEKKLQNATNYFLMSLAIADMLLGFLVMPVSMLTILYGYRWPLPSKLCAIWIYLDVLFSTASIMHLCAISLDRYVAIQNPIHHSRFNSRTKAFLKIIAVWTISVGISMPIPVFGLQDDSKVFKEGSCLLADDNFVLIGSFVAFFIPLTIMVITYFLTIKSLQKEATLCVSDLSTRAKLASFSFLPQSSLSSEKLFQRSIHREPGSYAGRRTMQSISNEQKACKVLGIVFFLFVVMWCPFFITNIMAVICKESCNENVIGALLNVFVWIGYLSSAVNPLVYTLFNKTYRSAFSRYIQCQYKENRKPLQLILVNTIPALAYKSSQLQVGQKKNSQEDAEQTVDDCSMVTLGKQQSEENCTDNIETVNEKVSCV
The assay can be described thus: 5-HT2A receptor binding ([3H]ketanserine, rat brain frontal cortex membrane preparation). The settings on record: tritiated ketanserine, 37° C., read-out: Inhibition of receptor binding of the radioactive ligand, 5-HT2A (Ki). The procedure: as §2

The target in assay [4] is T3, 5-HT2A receptor (Oryctolagus cuniculus, UniProt G1SYA7).
T3 construct: The thoracic aorta segment after the aortic arch was removed; from tissue; host or cells: rabbit thoracic aorta, helical strips
T3 sequence (G1SYA7 1-469): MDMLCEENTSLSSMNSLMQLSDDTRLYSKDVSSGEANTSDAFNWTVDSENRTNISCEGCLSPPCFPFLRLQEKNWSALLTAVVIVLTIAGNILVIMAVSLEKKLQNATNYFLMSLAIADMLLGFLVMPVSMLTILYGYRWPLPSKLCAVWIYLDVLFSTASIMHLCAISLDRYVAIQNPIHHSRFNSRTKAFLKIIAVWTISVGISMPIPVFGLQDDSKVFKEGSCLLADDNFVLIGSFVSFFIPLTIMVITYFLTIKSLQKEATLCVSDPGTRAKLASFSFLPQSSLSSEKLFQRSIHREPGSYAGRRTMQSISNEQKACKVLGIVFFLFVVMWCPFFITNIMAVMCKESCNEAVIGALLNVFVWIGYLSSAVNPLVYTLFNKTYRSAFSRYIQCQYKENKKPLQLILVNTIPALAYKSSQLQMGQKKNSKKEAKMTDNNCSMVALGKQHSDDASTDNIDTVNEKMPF
The assay is described as follows: 5-HT2A receptor antagonistic effect: inhibition of 5-HT-evoked contractions on isolated rabbit aortic strips. It is filed as cell-based, rabbit (New-Zealand, male, white). The settings on record: 5-HT 10^-6 M; phenoxybenzamine 10^-8 M; tranylcypramine 10^-7 M; 10 minutes incubation. On the procedure:
New-Zealand, male, white rabbits weighing 2.0 to 2.5 kg were killed by a blow on the head. The thoracic aorta segment after the aortic arch was removed and placed into a Krebs' solution (NaCl 118 mM, KCl 4.6 mM, NaHCO3 25 mM, glucose 10.5 mM, […] 1 mM, KH2PO4 1 mM, CaCl2 2.6 mM). The aorta was carefully cleaned from fat and connective tissue, and was cut into 3 mm wide and 30 mm long helical strips. Four strips were obtained from each rabbit. The strips were equilibrated at 37° C. for 60 minutes in an organ chamber filled with Krebs' solution. The strips were also oxygenated by bubbling carbogen gas (5% of carbon dioxide and 95% of oxygen) through the solution. The strips were stretched by 1 g tension.
The contractions were measured by a Hugo Sachs K-30 type strain gauge, and were registered on a Multicorder type polygraph. During the last 40 minutes of the equilibration, the MAO enzym inhibitor tranylcypramine (10^-7 M) /chemical name: (±)-trans-2-phenylcyclopropylamine/ was also added to the bath.
Any alpha-adrenergic effects of the test compounds were eliminated by 10^-8 M of phenoxybenzamine /N-(2-chloroethyl)-N-(1-methyl-2-phenoxyethyl)benzylamine/ /Clancy et al., J. Pharm. Exp. Ther., 233, 761 (1985). Testing of the serotonergic antagonistic effect was started at the 90th minute of incubation. The stability and reproducibility of the contractile response of the aortic strips to serotonin was tested by two consecutive application and wash-out procedures of 10^-6 M concentration of 5-HT, 40 minutes apart. […] 30 minutes after the second testing, a preset concentration of the test compound was added to the bath, and, after a 10 minutes incubation time, the response to 10^-6 M of 5-HT was determined in the presence of the compound to be tested.
Two different concentrations of a given compound were tested on each aortic strip by the above method. Reproducibility of the control 5-HT-evoked response was checked between testing the two concentrations of the compound.
as §1

For assay [5], the system named is human anxiety. The settings on record: cited from earlier work.

Some results are limits rather than exact numbers.

The term IC50 denotes the concentration needed to halve the response being measured. By Ki is commonly meant the dissociation constant of the complex between target and ligand, obtained from inhibition or displacement. As for `COc1ccc(Cc2c(N)nc(SCCN3CCN(Cc4ccccc4)CC3)nc2N)cc1` [Example 22, 2-/2-(4-Benzyl-1-piperazinyl)ethylthio/-4,6-diamino-5-(4-methoxybenzyl)pyrimidine], the IC50 came out at 320 nM in assay [1] and 420 nM in assay [4]. The values for the Ki in assay [2] and in assay [3] were greater than 100 nM and 56 nM, respectively.

On to `CN(C)c1ccc(Cc2c(N)nc(SCCN3CCN(Cc4ccc([N+](=O)[O-])cc4)CC3)nc2N)cc1` [Example 57, 2-[2-/4-(4-Nitrobenzyl)-1-piperazinyl/-ethylthio]-4,6-diamiiino-5-(4-dimethylamino-benzyl)pyrimidine], for which the IC50 in assay [1] and in assay [4] was 890 nM each time. Also, the results for the Ki in assay [2] and in assay [3] were 42 nM and greater than 100 nM, respectively.

Take `Cc1nc2sccn2c(=O)c1CCN1CCC(=C(c2ccc(F)cc2)c2ccc(F)cc2)CC1` [ritanserin, 6-[2-14-bis(4-fluorophenyl)methylene/-1-piperidinyl-ethyl]-7-7-methyl-5H-thiazolo/3,2-a/pirimidine-5-one]: the “effectiveness for the treatment of different forms of human anxiety” value in assay [5] was “effective for the treatment of different forms of human anxiety”.
